In patent US8163909B2, “Substituted hydroxyethyl amine compounds as beta-secretase modulators and methods of use” (Amgen Inc., priority 2007, dated 2012):
pIC50: −log10 of the molar value. Like-named read-outs stand apart in the source and are kept apart here.

Columns and labels:
[1] = human, microsomes, 1 μM, pH 7.4
[2] = rat, microsomes, 1 μM, pH 7.4
CYP3A4 (CYP3A) = CYP3A4 (CYP3A) (Homo sapiens, UniProt P08684); assay: in vitro; details: microsomes, pH 7.4;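 further: inhibition of CYP3A-mediated 1-hydroxymidazolam formation after 10 min incubation with NADPH, quantified by HPLC MS relative to metabolite produced without test compound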
CYP3A4 (CYP3A), sequence (P08684 2-503): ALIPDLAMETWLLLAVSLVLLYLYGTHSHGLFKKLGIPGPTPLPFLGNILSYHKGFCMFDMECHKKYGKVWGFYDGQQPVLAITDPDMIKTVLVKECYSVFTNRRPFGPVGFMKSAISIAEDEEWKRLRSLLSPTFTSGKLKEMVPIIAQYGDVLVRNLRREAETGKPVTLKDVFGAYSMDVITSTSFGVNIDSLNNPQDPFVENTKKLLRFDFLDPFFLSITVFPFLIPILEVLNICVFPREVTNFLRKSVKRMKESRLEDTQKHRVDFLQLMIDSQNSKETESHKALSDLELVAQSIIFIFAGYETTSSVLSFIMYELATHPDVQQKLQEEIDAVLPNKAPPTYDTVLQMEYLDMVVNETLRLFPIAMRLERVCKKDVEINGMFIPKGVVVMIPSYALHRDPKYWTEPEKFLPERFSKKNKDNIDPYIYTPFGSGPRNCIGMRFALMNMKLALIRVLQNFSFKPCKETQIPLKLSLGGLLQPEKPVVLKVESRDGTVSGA

[3] = tested on: Aβ40 in conditioned medium of cells stably expressing Amyloid Precursor Protein (APP); assay: In vitro BACE cell-based assay (Aβ40 in conditioned medium, sandwich ELISA); details: Homo sapiens; for IC50: IC50's in uM;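 on all read-outs here: compounds added as a dilution series, secreted peptide quantified by europium time-resolved fluorescence readout, potency fitted from percent of control versus compound concentration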
[4] = Microsomal stability assay, human liver microsomes;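 further: pooled human liver microsomes at 0.25 mg/mL with 1 µM compound and NADPH at 37 °C, pH 7.4, for 30 min, unchanged parent quantified by LC-MS/MS against the 0 min sample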
[5] = molecular target: Beta Secretase enzyme (BACE) (Homo sapiens, UniProt P56817); assay: In vitro enzymatic BACE FRET (fluorescence resonance energy transfer) assay; type: biochemical; details: for IC50: IC50's in uM;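 on all read-outs here: fluorescence read after 1 h with 50 nM quenched peptide substrate spanning the BACE cleavage site, in pH 4.2 acetate buffer containing 10% DMSO and nonionic detergent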
Beta Secretase enzyme (BACE), sequence (P56817 46-501): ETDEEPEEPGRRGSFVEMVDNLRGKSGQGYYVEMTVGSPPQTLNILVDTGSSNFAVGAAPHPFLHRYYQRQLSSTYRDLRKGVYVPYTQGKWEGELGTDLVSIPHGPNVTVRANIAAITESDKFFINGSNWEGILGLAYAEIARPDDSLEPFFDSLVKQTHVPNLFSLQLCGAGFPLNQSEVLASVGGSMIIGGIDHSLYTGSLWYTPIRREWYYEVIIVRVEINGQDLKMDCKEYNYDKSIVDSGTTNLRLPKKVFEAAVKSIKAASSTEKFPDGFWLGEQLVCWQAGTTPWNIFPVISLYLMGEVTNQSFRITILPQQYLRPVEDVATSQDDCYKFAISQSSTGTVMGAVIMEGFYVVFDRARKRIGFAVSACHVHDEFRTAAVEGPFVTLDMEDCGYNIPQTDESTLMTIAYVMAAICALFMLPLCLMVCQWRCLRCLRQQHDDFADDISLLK

Abeta peptide = assay: In vivo inhibition of beta-secretase (reduction of Abeta peptide in brain and cerebrospinal fluid); design: species or system rat; details: Rattus norvegicus, po, 4 h, orally administered at 30 mg/kg dose, measured after 4 hours;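 further: abeta peptide quantified by sandwich ELISA with electrochemiluminescence readout in rat brain supernatant or CSF, relative to vehicle-dosed control animals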
[6] = Microsomal stability assay, rat liver microsomes;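 further: rat liver microsomes (0.25 mg/mL) with about 1 µM compound plus 1 mM NADPH, pH 7.4, 37 °C for 30 min, parent left measured by LC-MS/MS against 0 min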
CYP2D6 = CYP2D6 (Homo sapiens, UniProt P10635); assay: CYP2D6 inhibition assay (bufuralol, pooled human liver microsomes); details: for IC50: 2D6 IC50 (uM)
CYP2D6, sequence (P10635 whole entry): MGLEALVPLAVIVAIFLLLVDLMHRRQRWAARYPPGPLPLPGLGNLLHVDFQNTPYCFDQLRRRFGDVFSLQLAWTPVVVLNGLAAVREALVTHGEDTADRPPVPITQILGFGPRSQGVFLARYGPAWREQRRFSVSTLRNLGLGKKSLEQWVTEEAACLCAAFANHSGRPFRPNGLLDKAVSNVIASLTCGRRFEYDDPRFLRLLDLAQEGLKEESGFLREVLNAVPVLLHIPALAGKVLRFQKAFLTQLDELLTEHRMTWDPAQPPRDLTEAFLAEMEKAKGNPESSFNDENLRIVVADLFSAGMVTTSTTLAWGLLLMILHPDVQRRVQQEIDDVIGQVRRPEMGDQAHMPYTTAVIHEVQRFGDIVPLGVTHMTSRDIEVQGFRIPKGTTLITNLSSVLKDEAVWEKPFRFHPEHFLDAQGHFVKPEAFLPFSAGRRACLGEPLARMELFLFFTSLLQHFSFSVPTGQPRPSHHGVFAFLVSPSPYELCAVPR

[7] = BACE enzyme assay, read-out: BACE1 FRET assay
[8] = rat cerebrospinal fluid, read-out: percent reduction of abeta peptide in the cerebrospinal fluid of the rat
[9] = HEK293, HEK cell-based assay IC50, read-out: HEK cell assay
[10] = BACE enzyme assay IC50, read-out: BACE1 FRET assay
[11] = rat brain, read-out: percent reduction of abeta peptide in the brain of the rat

With COCC(=O)N[C@@H](Cc1cccc(-c2nccs2)c1)[C@H](O)CN[C@H]1C[C@]2(CCOC2)Oc2ncc(CC(C)(C)C)cc21 [compound 845] the “HLM” value [1] was 64 µL/min/mg and the “RLM” value [2] was 152 µL/min/mg.

In the case of COCC(=O)N[C@@H](Cc1cccc(-c2nccs2)c1)[C@H](O)CN[C@H]1C[C@@]2(CCOC2)Oc2ncc(CC(C)(C)C)cc21 [compound 814, N-((1S,2R)-3-(((3S,4′S)-6′-(2,2-dimethylpropyl)-3′,4,4′,5-tetrahydrospiro[furan-3,2′-pyrano[2,3-b]pyridin]-4′-yl)amino)-2-hydroxy-1-(3-(1,3-thiazol-2-yl)benzyl)propyl)-2-methoxyacetamide], the “HLM” value [1] was 40 µL/min/mg and the “RLM” value [2] was 112 µL/min/mg.

For C#Cc1cccc(C[C@H](NC(=O)COC)[C@H](O)CN[C@H]2C[C@]3(CCOC3)Oc3ncc(CC(C)(C)C)cc32)c1 [compound 824], the “HLM” value [1] was 21 µL/min/mg and the “RLM” value [2] was 28 µL/min/mg.

In the case of CO[C@H](C)C(=O)N[C@@H](Cc1cccc(-c2ncco2)c1)[C@H](O)CN[C@H]1CC2(CCC2)Oc2ncc(CC(C)(C)C)cc21 [Example 836, (2R)-N-((1S,2R)-3-(((4′S)-6′-(2,2-dimethylpropyl)-3′,4′-dihydrospiro[cyclobutane-1,2′-pyrano[2,3-b]pyridin]-4′-yl)amino)-2-hydroxy-1-(3-(1,3-oxazol-2-yl)benzyl)propyl)-2-methoxypropanamide], the pIC50 (CYP3A4 (CYP3A)) was 6.70, the IC50 ([3]; HEK293, HEK cell-based assay, read-out: HEK cell assay) was 0.015 µM and the “HLM” value ([4]; human liver microsomal data) was 56 µL/min/mg. The IC50 [5, 7] was 0.013 µM, the inhibition in vivo at 30 mg/kg (Abeta peptide; [8]) was 10 to 80% and the “RLM” value ([6]; rat liver microsomal data) was 56 µL/min/mg. The IC50 (CYP2D6; CYP enzyme inhibition) was 0.7 µM.

For COCC(=O)N[C@@H](Cc1ccccc1)[C@H](O)CN[C@H]1CC2(CCC2)Oc2c1cc(CC(C)(C)C)nc2-c1ccncc1 [Example 541], the pIC50 (CYP3A4 (CYP3A)) was 7.00, the pIC50 ([3]; HEK293, HEK cells, read-out: HEK cell assay) was 7.26 and the “HLM” value ([4]; human liver microsomal data) was 31 µL/min/mg. For the same compound, the pIC50 [5, 7] was 7.70, the inhibition in vivo at 30 mg/kg (Abeta peptide; [8]) was 10 to 80% and the “RLM” value ([6]; rat liver microsomal data) was 192 µL/min/mg. For the same compound, the IC50 (CYP2D6; CYP enzyme inhibition) was 2.1 µM.

For CO[C@H](C)C(=O)N[C@@H](Cc1ccc(F)c(-c2nccs2)c1)[C@H](O)CN[C@H]1CC2(CCC2)Oc2ncc(CC(C)(C)C)cc21 [Example 690], the pIC50 (CYP3A4 (CYP3A)) was 7.00, the pIC50 [3, 9] was 7.40 and the “HLM” value ([4]; human liver microsomes) was 40 µL/min/mg. For the same compound, the pIC50 [5, 10] was 7.96, the inhibition in vivo at 30 mg/kg (Abeta peptide; [11]) was 5 to 80% and the “RLM” value ([6]; rat liver microsomes) was 53 µL/min/mg. The IC50 (CYP2D6; CYP2D6 inhibition) was 0.5 µM.

With CC(C)(C)Cc1cnc2c(c1)[C@@H](NC[C@@H](O)[C@H](Cc1cc(F)cc(-c3nccs3)c1)NC(=O)C1CCC1)CC1(CCC1)O2 [Example 875] the pIC50 (CYP3A4 (CYP3A)) was 6.70, the IC50 ([3]; HEK293, cell-based assay, HEK cells, read-out: HEK cell assay) was 0.02 µM and the HLM ([4]; human liver microsomal data) was 65 µL/min/mg. The IC50 [5, 7] was 0.006 µM, the inhibition in vivo at 30 mg/kg (Abeta peptide; [11]) was 5 to 80% and the RLM ([6]; rat liver microsomal data) was 81 µL/min/mg. For the same compound, the pIC50 (CYP2D6; 2D6 IC50, CYP enzyme inhibition) was 6.52.

For COCC(=O)N[C@@H](Cc1cc(F)cc(F)c1)[C@H](O)CN[C@H]1CC2(CCC2)Oc2c1cc(CC(C)(C)C)nc2-c1nccn1C [Example 596], the pIC50 (CYP3A4 (CYP3A)) was 7.00, the pIC50 ([3]; HEK293, HEK cells, read-out: HEK cell assay (IC50)) was 8.05 and the HLM ([4]; human liver microsomes) was 26 µL/min/mg. For the same compound, the pIC50 ([5]; read-out: BACE1 FRET assay (IC50)) was 7.39, the inhibition in vivo at 30 mg/kg (Abeta peptide; [8]) was 10 to 80% and the RLM ([6]; rat liver microsomes) was 39 µL/min/mg. The pIC50 (CYP2D6; 2D6 IC50, CYP2D6 inhibition) was 5.54.

With CC(=O)N[C@@H](Cc1cc(F)cc(F)c1)[C@H](O)CN[C@H]1CC2(CCC2)Oc2c(-c3ccncc3)cc(CC(C)C)cc21 [Example 673] the pIC50 (CYP3A4 (CYP3A)) was at least 7.52, the pIC50 [3, 9] was 8.30 and the “HLM” value ([4]; human liver microsomes) was 46 µL/min/mg. For the same compound, the pIC50 [5, 10] was 8.05, the inhibition in vivo at 30 mg/kg (Abeta peptide; [8]) was 10 to 80% and the “RLM” value ([6]; rat liver microsomes) was 118 µL/min/mg. For the same compound, the IC50 (CYP2D6; CYP2D6 inhibition) was 0.8 µM.

With COCC(=O)N[C@@H](Cc1ccc(F)c(-c2nccs2)c1)[C@H](O)CN[C@H]1CC2(CCC2)Oc2ncc(CC(C)(C)F)cc21 [Example 743] the pIC50 (CYP3A4 (CYP3A)) was at least 7.52, the pIC50 [3, 9] was 7.43 and the “HLM” value ([4]; human liver microsomes) was 22 µL/min/mg. It also gave a pIC50 [5, 10] of 7.80, an inhibition in vivo at 30 mg/kg (Abeta peptide; [11]) of at least 30% and an inhibition in vivo at 30 mg/kg (Abeta peptide; [8]) of 10 to 80%. The “RLM” value ([6]; rat liver microsomes) was 31 µL/min/mg and the IC50 (CYP2D6; CYP2D6 inhibition) was 0.6 µM.
